In patent US9708314B2, “Heterocyclic amide compound” (NISSAN CHEMICAL INDUSTRIES, LTD., priority 2013, dated 2017):

Columns and labels:
Type in all cases: in vivo
Cyperus difformis = test: Test Example 3: herbicidal effect by application to foliage (Wagner pot, water depth 0.1-0.5 cm); settings: Nineteenth Table; application to foliage; application herbicide amount 320 g/ha
Outline: (§1)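 Visual 0–5 rating of herbicidal ratio, taken 3 weeks after foliar spray of a diluted emulsion formulation at rates expressed as g/ha. Plants had been sown in alluvial soil under 0.1–0.5 cm water and grown 14 days at 25–30 °C under glass before application.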

[1] = system: Echinochloa crus-galli var. crus-galli; test: as above; settings: Nineteenth Table; application to foliage; application herbicide amount 320 g/ha
Outline: as §1

Abutilon theophrasti = test: Test Example 4: herbicidal effect by application to foliage (diluvial soil, plastic box); settings: foliage application, 320 g/ha
Outline: (§2)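 Emulsion-formulated compound, diluted to a predetermined g/ha dose, applied by small sprayer to leaves and stems of 14-day-old seedlings grown in sterilized diluvial soil. Effect rated on 0–5 herbicidal-ratio scale three weeks on.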

Alopecurus myosuroides = test: as above; settings: foliage application, 320 g/ha
Outline: as §2

Amaranthus retroflexus = test: as above; settings: foliage application, 320 g/ha
Outline: as §2

Apera spica-venti. = test: as above; settings: foliage application, 320 g/ha
Outline: as §2

Avena fatua = test: as above; settings: foliage application, 320 g/ha
Outline: as §2

Chenopodium album = test: as above; settings: foliage application, 320 g/ha
Outline: as §2

Digitaria ciliaris = test: as above; settings: foliage application, 320 g/ha
Outline: as §2

[2] = system: Echinochloa crus-galli var. crus-galli; test: as above; settings: foliage application, 320 g/ha
Outline: as §2

Galium spurium = test: as above; settings: foliage application, 320 g/ha
Outline: as §2

Lolium multiflorum Lam. = test: as above; settings: foliage application, 320 g/ha
Outline: as §2

Setaria viridis = test: as above; settings: foliage application, 320 g/ha
Outline: as §2

Stellaria media = test: as above; settings: foliage application, 320 g/ha
Outline: as §2

Veronica persica = test: as above; settings: foliage application, 320 g/ha
Outline: as §2

[3] = system: Beta vulgaris ssp. vulgaris; test: Test Example 4: effect on crop by application to foliage (diluvial soil, plastic box); settings: foliage application, 320 g/ha
Outline: as §2

Brassica campestris L. = test: as above; settings: foliage application, 320 g/ha
Outline: as §2

Glycine max = test: as above; settings: foliage application, 320 g/ha
Outline: as §2

Triticum aestivum = test: as above; settings: foliage application, 320 g/ha
Outline: as §2

Zea mays = test: as above; settings: foliage application, 320 g/ha
Outline: as §2

[4] = system: directly sowed Oryza sativa; test: as above; settings: foliage application, 320 g/ha
Outline: as §2

Leptochloa chinensis = test: Test Example 3: herbicidal effect by application to foliage (Wagner pot, water depth 0.1-0.5 cm); settings: Nineteenth Table; application to foliage; application herbicide amount 320 g/ha
Outline: as §1

Structure (SMILES)	E (herbicidal effect grade) (Cyperus difformis)	H (herbicidal effect grade) [1]	M (Abutilon theophrasti) herbicidal effect grade (Abutilon theophrasti)	J (Alopecurus myosuroides) herbicidal effect grade (Alopecurus myosuroides)	N (Amaranthus retroflexus) herbicidal effect grade (Amaranthus retroflexus)	L (Apera spica-venti.) herbicidal effect grade (Apera spica-venti.)	I (Avena fatua) herbicidal effect grade (Avena fatua)	O (Chenopodium album) herbicidal effect grade (Chenopodium album)	F (Digitaria ciliaris) herbicidal effect grade (Digitaria ciliaris)	H (Echinochloa crus-galli var. crus-galli) herbicidal effect grade [2]	Q (Galium spurium) herbicidal effect grade (Galium spurium)	K (Lolium multiflorum Lam.) herbicidal effect grade (Lolium multiflorum Lam.)	G (Setaria viridis) herbicidal effect grade (Setaria viridis)	P (Stellaria media) herbicidal effect grade (Stellaria media)	f (Beta vulgaris ssp. vulgaris) effect on crop grade [3]	g (Brassica campestris L.) effect on crop grade (Brassica campestris L.)	c (Glycine max) effect on crop grade (Glycine max)	e (Triticum aestivum) effect on crop grade (Triticum aestivum)	b (Zea mays) effect on crop grade (Zea mays)	d (directly sowed Oryza sativa) effect on crop grade [4]	further results
CCOC(=O)Cc1nnc2c(C(=O)Nc3nnnn3C)ccc(C(F)(F)F)n12 [2-040]	5 (Herbicidal ratio of 90% or more (almost completely withered))	4 (Herbicidal ratio of 70% or more and less than 90%)	5 (Herbicidal ratio of 90% or more (almost completely withered))	1 (Herbicidal ratio of 5% or more and less than 20%)	5 (Herbicidal ratio of 90% or more (almost completely withered))	3 (Herbicidal ratio of 40% or more and less than 70%)	3 (Herbicidal ratio of 40% or more and less than 70%)	5 (Herbicidal ratio of 90% or more (almost completely withered))	5 (Herbicidal ratio of 90% or more (almost completely withered))	5 (Herbicidal ratio of 90% or more (almost completely withered))	4 (Herbicidal ratio of 70% or more and less than 90%)	1 (Herbicidal ratio of 5% or more and less than 20%)	3 (Herbicidal ratio of 40% or more and less than 70%)	5 (Herbicidal ratio of 90% or more (almost completely withered))	5 (Herbicidal ratio of 90% or more (almost completely withered))	3 (Herbicidal ratio of 40% or more and less than 70%)	1 (Herbicidal ratio of 5% or more and less than 20%)	2 (Herbicidal ratio of 20% or more and less than 40%)	4 (Herbicidal ratio of 70% or more and less than 90%)	4 (Herbicidal ratio of 70% or more and less than 90%)	R (Veronica persica) herbicidal effect grade (Veronica persica): 5 (Herbicidal ratio of 90% or more (almost completely withered))
CC(C)c1nnc2c(C(=S)Nc3nnnn3C)ccc(C(F)(F)F)n12 [2-039, 3-Isopropyl-N-(1-methyl-1H-tetrazol-5-yl)-5-(trifluoromethyl)-[1,2,4]triazolo[4,3-a]pyridine-8-carbothioamide]	5 (Herbicidal ratio of 90% or more (almost completely withered))	5 (Herbicidal ratio of 90% or more (almost completely withered))	5 (Herbicidal ratio of 90% or more (almost completely withered))	3 (Herbicidal ratio of 40% or more and less than 70%)	5 (Herbicidal ratio of 90% or more (almost completely withered))	4 (Herbicidal ratio of 70% or more and less than 90%)	4 (Herbicidal ratio of 70% or more and less than 90%)	5 (Herbicidal ratio of 90% or more (almost completely withered))	5 (Herbicidal ratio of 90% or more (almost completely withered))	5 (Herbicidal ratio of 90% or more (almost completely withered))	4 (Herbicidal ratio of 70% or more and less than 90%)	3 (Herbicidal ratio of 40% or more and less than 70%)	5 (Herbicidal ratio of 90% or more (almost completely withered))	5 (Herbicidal ratio of 90% or more (almost completely withered))	5 (Herbicidal ratio of 90% or more (almost completely withered))	5 (Herbicidal ratio of 90% or more (almost completely withered))	3 (Herbicidal ratio of 40% or more and less than 70%)	3 (Herbicidal ratio of 40% or more and less than 70%)	4 (Herbicidal ratio of 70% or more and less than 90%)	4 (Herbicidal ratio of 70% or more and less than 90%)	R (Veronica persica) herbicidal effect grade (Veronica persica): 5 (Herbicidal ratio of 90% or more (almost completely withered))
Cn1nnnc1NC(=O)c1ccc(C(F)(F)F)n2c(Nc3ccccc3)nnc12 [2-056]	4 (Herbicidal ratio of 70% or more and less than 90%)	4 (Herbicidal ratio of 70% or more and less than 90%)	4 (Herbicidal ratio of 70% or more and less than 90%)	1 (Herbicidal ratio of 5% or more and less than 20%)	4 (Herbicidal ratio of 70% or more and less than 90%)	1 (Herbicidal ratio of 5% or more and less than 20%)	1 (Herbicidal ratio of 5% or more and less than 20%)	5 (Herbicidal ratio of 90% or more (almost completely withered))	5 (Herbicidal ratio of 90% or more (almost completely withered))	4 (Herbicidal ratio of 70% or more and less than 90%)	4 (Herbicidal ratio of 70% or more and less than 90%)	1 (Herbicidal ratio of 5% or more and less than 20%)	3 (Herbicidal ratio of 40% or more and less than 70%)	5 (Herbicidal ratio of 90% or more (almost completely withered))	5 (Herbicidal ratio of 90% or more (almost completely withered))	3 (Herbicidal ratio of 40% or more and less than 70%)	1 (Herbicidal ratio of 5% or more and less than 20%)	1 (Herbicidal ratio of 5% or more and less than 20%)	0 (Herbicidal ratio of 5% or less (almost no effect))	3 (Herbicidal ratio of 40% or more and less than 70%)	D (herbicidal effect grade) (Leptochloa chinensis): 5 (Herbicidal ratio of 90% or more (almost completely withered))
